Structures can show the parent of a compound that is named as a salt. Where two headings read alike, the source gives them in different places.
Columns and labels:
[1] = system: synthesis of LTB4 by rat glycogen-elicited polymorphonuclear leukocytes (PMN); assay: inhibition of LTB4 synthesis by rat glycogen-elicited PMN (Example 72); assay type: cell-based, rat (female Wistar); details: Leukocyte; for inhibition at 10000 µM: at 10 mM, negative number denotes potentiation; for inhibition at 500 µM: at 0.5 mM
Source text: This is especially true with respect to 5,12-diHETE, which is also denoted as LTB4 lsee Ford-Hitchinson, J. Roy. Soc. Med., 74, 831 (1981)]. Compounds which inhibit the PLA2 -mediated release of arachidonic acid thereby effectively prevent the oxidation of arachidonic acid to the various leukotriene products via the lipoxygenase cascade. Accordingly, the specificity of action of PLA2 inhibitors can be determined by the activity of test compounds in this assay, which measures the ability of compounds to inhibit the synthesis of LTB4 by rat glycogen-elicited polymorphonuclear leukocytes (PMN) in the presence of exogenous substrate.
The assay is carded out as follows:
(§1) Rat polymorphonuclear leukocytes (PMNs) are obtained from female Wistar rats (150-200 g) which receive an injection of 6% glycogen (10 ml i.p.). Rats are sacrificed 18-24 hours post injection by CO2 asphyxiation and the elicited cells are harvested by peritoneal lavage using physiological saline (0.9% NaC1). The exudate is centrifuged at 400 ×g for 10 minutes. The supernatant fluid is discarded and the cell pellet is resuspended to a concentration of 2.0×10^7 cells/mL in HBSS containing Ca^++ and Mg^++ and 10 mM L-cysteine.
(§2) To 1 mL aliquots of cell suspension, test drugs or vehicle are added, then preincubated at 37° C. for 10 minutes. A23187 (1 mM), [^3 H]-AA (3.0 mCi/mL) and unlabeled AA (1 mM) are then added and the samples are further incubated for 10 minutes. The reaction is terminated by centrifugation and pelleting cells. Supernatants are then analyzed by HPLC analysis on a 15 cm×4.6 mm ID supelcosil LC-18 (Supelco)(3M) column, using a two solvent system at a flow rate of 1.4 mL total flow as follows:
Gradient: (system is equilibrated with Solvent A)
Percent solvent changes are accomplished in a linear fashion.
Injections: […] of each supernatant is injected directly onto column and ^3 H arachidonic acid metabolites are monitored using an on-line radioactivity detector (Ramona, IN/U S, Fairfield, NJ).
Standards: 10^4 -2.0×10^4 dpm of eicosanoids of interest are injected in […] EtOH cocktail.
Co-chromatography with standard [^3 H] leukotriene B4 (LTB4) in medium of stimulated PMN exposed to drug is compared to that found in medium of stimulated cells exposed to no drug, generating percent inhibition.
Results are expressed as percent inhibition at a given compound dose or as an IC50 value.

[2] = system: cyclooxygenase (PGE2 synthesis) in rat polymorphonuclear leukocytes (PMN); assay: inhibition of PGE2 synthesis (cyclooxygenase) by rat glycogen-elicited PMN (Example 73); assay type: cell-based, rat (female Wistar); details: Leukocyte; for inhibition at 10000 µM: at 10 mM
Procedure: as §1, §2
In this assay, the procedure of Example 72 is carried out as described. However, in order to determine cyclooxygenase activity, the samples are cochromatographed with authentic reference [^3 H]-PGE2.
The results be calculated as in Example 72 and presented below: […]

[3] = system: 5-lipoxygenase in human whole blood; assay: inhibition of 5-lipoxygenase in human whole blood (Example 79); assay type: cell-based; details: 25 μM
Procedure: The assay of this Example measures the ability of the compounds tested to inhibit 5-lipoxygenase in human whole blood.
(§3) This assay is carried out as follows:
Blood is obtained in 50-100 ml quantities from male donors. White blood cell counts and differentials are made. Two ml of blood are placed in a 15 ml polypropylene test tube. Compounds are solubilized in dimethylsulfoxide and diluted 1:10 in 10% bovine serum albumin in phosphate buffered saline, pH 7.4 resulting in a final dimethylsulfoxide concentration of 0.1% in the blood. Then, compounds are added to the blood in a shaking water bath at 37° C. for 10 minutes prior to the addition of […] calcium ionophore (A23187; Sigma). After ionophore administration, whole blood samples are mixed and incubated for 20 minutes at 37° C. in a shaking water bath. Incubation is terminated by placing samples in an ice bath and immediately adding ethylene glycol-bis-(b-aminoethyl ether)-N,N,N',N'-tetraacetic acid (10 mM). Samples are mixed and centrifuged at 1200 × g for 15 minutes at 4° C. Preparation of samples for evaluation by RIA or ELISA is carried out by the following protocol. Plasma is removed from sample tubes, placed in 15 ml polypropylene test tubes containing 8 ml methanol, and then vortexed to precipitate protein. Samples are stored at -70° C. overnight. The next day, samples are centrifuged at 200 × g for 15 minutes at 4° C. to pellet the precipitate. Samples are dried in a Savant speed vac concentrator, reconstituted to original volume with ice cold RIA or ELISA buffer, and stored at -70° C. until assayed. The assay for eicosanoids (LTB4, T×B2, and PGE2) is performed as described by the manufacturer of the [^3 H]-RIA kit or ELISA kit (LTB4 -Amersham, TxB2 and PGE2 - Caymen Chemical).
The total eicosanoid level in 2 ml of blood is calculated and reported as ng/10^6 neutrophils. […] Drug effects are expressed as percent change from control values.
Compounds tested in vitro are solubilized in dimethylsulfoxide and diluted 1:10 in 10% bovine serum albumin in phosphate buffer saline resulting in a final dimethylsulfoxide concentration of 0.1% i n the blood.

[4] = target: T1, human synovial fluid PLA2 (Homo sapiens, UniProt P14555); assay: in vitro isolated phospholipase A2 assay, human synovial fluid PLA2 (Example 74); assay type: biochemical; design: inhibition / % Inhibition, HSF (human synovial fluid): dose or concentration left out as unconfirmed; details: for IC50: Table III, read-out: IC50 HSF (human synovial fluid); for inhibition: read-out: % Inhibition, HSF (human synovial fluid)
T1 sequence (P14555 21-144): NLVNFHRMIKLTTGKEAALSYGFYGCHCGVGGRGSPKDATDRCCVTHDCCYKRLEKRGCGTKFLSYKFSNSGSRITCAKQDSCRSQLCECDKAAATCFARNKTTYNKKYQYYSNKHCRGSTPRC
Procedure: (§4) The compounds of the invention are tested in an in vitro isolated phospholipase A2 assay to determine the ability of the test compounds to inhibit the release of arachidonic acid from an arachidonic acid-containing substrate by the action of phospholipase A2 enzyme from human and non-human sources.
as §3
(§5) Into a 15 mL polypropylene tube are added the following:
(§6) ^6 Two human PLA2 enzymes are used:
b) Purified human synovial fluid.
(§7) Incubate the 100mL reaction mixture for 10 minutes at 37° C. in a shaking water bath. The reaction is terminated by the addition of 2 mL tetrahydrofuran, followed by vortexlag. NH2 columns (100 mg/mL--Analytichem International) are conditioned with 0.5 mL tetrahydrofuran followed by 0.5 mL tetrahydrofuran/water (2 mL:0.1 mL, v/v).
(§8) The sample is loaded onto the columns and slowly drawn through them. The hydrolyzed arachidonic acid retained in the columns is eluted therefrom with 1 mL tetrahydrofuran/glacial acetic acid (2%). The arachidonic acid is transferred to scintillation vials and quantitated by b-counting analysis. A "total counts" sample is prepared by pipetting […] ^3 H-arachidonate E. coli directly into a scintillation vial to which is added 1 mL tetrahydrofuran. 10 mL aquasol (scintillation cocktail) is added to all samples. [formula]

human platelet PLA2 = target: T2, human platelet PLA2 (Homo sapiens, UniProt P14555); assay: in vitro isolated phospholipase A2 assay, human platelet PLA2 (Example 74); assay type: biochemical; design: dose or concentration left out as unconfirmed; details: read-out: % Inhibition, HP (human platelet)
T2 construct: Semi-purified human platelet acid extract PLA2; from tissue; host or cells: human platelets (semi-purified acid extract)
T2 sequence (P14555 21-144): T1 sequence (P14555 21-144)
Procedure: as §4, §3, §5, §6
a) Semi-purified human platelet acid extract PLA2 (in 10 mM
sodium acetate buffer, pH 4.5). Remove protein precipitate by
centrifugation at about 2200 rpm for 10 minutes.
as §7, §8

[5] = * (negative) denotes a potentiation, read-out: % Inhibition (PGE2 synthesis)
[6] = read-out: % Inhibition (PGE2 synthesis), symbol only

| Compound | inhibition at 10000 µM [1] | inhibition at 10000 µM [2, 5] | IC50 [4] | inhibition [4] | also measured |
| --- | --- | --- | --- | --- | --- |
| CCc1cc(OCc2ccc3ccccc3n2)cc2c3c([nH]c12)C(CC)(CC(=O)O)OCC3 (stereo not drawn) [Example 8, 1,8-Diethyl-1,3,4,9-tetrahydro-6-(2-quinolinylmethoxy)pyrano[3.4-b]indole-1-acetic acid] | 91% | 47% |  |  |  |
| Cc1c(CC(=O)O)c2cc(OCc3ccc4ccccc4n3)ccc2n1Cc1ccc(Cl)cc1 [Example 16, 1-[(4-Chlorophenyl)methyl]-2-methyl-5-(2-quinolinylmethoxy)-1H-indole-3-acetic acid hydrochloride quarter hydrate] | 96% |  | 4.1 µM | 46% | % Inhibition of LTB4 [3]: 18%; inhibition at 10000 µM [2, 6]: < 0% |
| COC(=O)Cc1c(C)n(Cc2ccc(Cl)cc2)c2ccc(OCc3ccc4ccccc4n3)cc12 [Example 16C, 1-[(4-Chlorophenyl)methyl]-2-methyl-5-(2-quinolinylmethoxy)-1H-indole-3-acetic acid methyl ester] |  |  |  |  | inhibition at 500 µM [1]: 88%; inhibition at 10000 µM [2, 6]: < 0% |
| Cc1c(CC(=O)O)c2cc(OCc3ccc4ccccc4n3)ccc2n1C(=O)c1ccc(Cl)cc1 [Example 17, 1-(4-Chlorobenzoyl)-2-methyl-5-(2-quinolinylmethoxy)-1H-indole-3-acetic acid three quarters hydrate] |  |  | 14.9 µM | 58% | inhibition at 500 µM [1]: 46%; inhibition at 500 µM ([2]; at 0.5 mM, * (negative) denotes a potentiation): 60% |
| COC(=O)Cc1c(C)n(C(=O)c2ccc(Cl)cc2)c2ccc(OCc3ccc4ccccc4n3)cc12 [Example 17A, 1-(4-Chlorobenzoyl)-2-methyl-5-(2-quinolinylmethoxy)-1H-indole-3-acetic acid methyl esterone tenth hydrate] | 96% | 50% |  |  |  |
| CC(C(=O)O)c1ccc2c3cc(OCc4ccc5ccccc5n4)ccc3n(Cc3ccc4ccccc4n3)c2c1 (stereo not drawn) [Example 21, a-Methyl-6-(2-quinolinylmethoxy)-9-(2-quinolinylmethyl)-9H-carbazole-2-acetic acid] | 92% | -94% |  |  |  |
| Cc1c(CC(=O)O)c2cc(OCc3ccc4ccccc4n3)ccc2n1Cc1ccc(F)cc1 [Example 24, 1-[(4-Fluorophenyl)methyl]-2-methyl-5-(2-quinolinylmethoxy)-1H-indole-3-acetic acid hemihydrate] | 97% | -126% |  | 56% |  |
| Cc1c(CC(=O)O)c2cc(OCc3ccc4ccccc4n3)ccc2n1Cc1ccc(Br)cc1 [Example 25, 1-[(4-Bromophenyl)methyl]-2-methyl-5-(2-quinolinylmethoxy)-1H-indole-3-acetic acid hemihydrate] | 93% | -67% |  | 11% |  |
| Cc1c(CC(=O)O)c2cc(OCc3ccc4ccccc4n3)ccc2n1Cc1ccccc1 [Example 26, 1-[(Phenyl)methyl-2-methyl]-5-(2-quinolinylmethoxy)-1H-indole-3-acetic acid tenth hydrate] | 85% | -125% | 2.6 µM | 92% |  |
| CCCCCn1c(C)c(CC(=O)O)c2cc(OCc3ccc4ccccc4n3)ccc21 [Example 29, 2-Methyl-1-pentyl-5-(2-quinolinylmethoxy)-1H-indole-3-acetic acid hemihydrate] | 88% | -123% | 15.5 µM | 53% |  |
| CCCCCCn1c(C)c(CC(=O)O)c2cc(OCc3ccc4ccccc4n3)ccc21 [Example 30, 1-Hexyl-2-methyl-5-(2-quinolinylmethoxy)-1H-indole-3-acetic acid three quarters hydrate] | 90% | -130% | 16.4 µM | 46% |  |
| Cc1c(CC(N)=O)c2cc(OCc3nc4ccccc4s3)ccc2n1Cc1ccc(Cl)cc1 [Example 45, 5-(2-Benzothiazolylmethoxy)-1-[(4-chlorophenyl)methyl]-2-methyl-1H-indole-3-acetamide] |  |  |  | 23% | inhibition (human platelet PLA2): 33% |
| Cc1c(CC(=O)NOCc2ccccc2)c2cc(OCc3nc4ccccc4s3)ccc2n1Cc1ccc(Cl)cc1 [Example 48, 5-(2-Benzothiazolylmethoxy)-1-[(4-chlorophenyl)methyl]-N-(phenylmethoxy)-2-methyl-1H-indole-3-acetamide] |  |  |  | 54% | inhibition (human platelet PLA2): 4% |
| Cc1c(CC(=O)O)c2cc(OCc3csc(-c4ccccc4)n3)ccc2n1Cc1ccc(C(C)(C)C)cc1 [Example 62, 5-[(2-Phenyl-4-thiazolyl)methoxy]-1-[[4-(1,1-dimethylethyl)phenyl]methyl]-2-methyl-1H-indole-3-acetic acid hemihydrate] |  |  |  | 30% | inhibition (human platelet PLA2): 3% |
| CC(C(=O)O)c1ccc2c(c1)[nH]c1ccc(Cl)cc12 (stereo not drawn) [carprofen, reference compound] | -10% | 83% |  |  |  |
| CC1=C(CC(=O)O)c2cc(F)ccc2/C1=C\c1ccc([S+](C)[O-])cc1 (stereo not drawn) [sulindac, reference compound] | -10% | 23% |  |  |  |

From patent publication US5420289A, “Substituted indole-, indene-, pyranoindole- and tetrahydrocarbazole-alkanoic acid derivatives as inhibitors of PLA2 and lipoxygenase” (American Home Products Corporation, priority 1993, dated 1995)
